Patent USRE46372E1, “Method for treating hearing loss” (The Regents of the University of Michigan, priority 2006, dated 2017)
“Also recorded” adds a separate entry of the source.

Assays:
guinea pigs [1] = assay: Noise-induced hearing loss in guinea pigs, ABR threshold shift; type: in vivo, guinea pig; details: for permanent hearing loss 10 days post noise (FIG. 1), protection in words: Trolox 100 mg/kg once daily or 50 mg/kg twice daily, betahistine 30 mg/kg once daily or 18 mg/kg, versus saline control; for threshold shift, as averaged across all frequencies: ABR at 4, 8, 16 kHz, 10 days after 120 dB SPL Octave Band Noise centered at 4 kHz for 5 h, saline control about 45
[2] = in words; cited from earlier work
[3] = in words; cited from earlier work; remark: listed apart in the source
guinea pigs [4] = assay: Missing hair cells (hair cell counts, cytocochleograms) after noise exposure in guinea pigs; details: after 120 dB SPL noise for 5 h, in words
Method: After ABR testing, the guinea pigs are deeply anesthetized and decapitated. Temporal bones are quickly removed, dissected open and fixed with 4% paraformaldehyde. The following day, an otic capsule, lateral wall, and tectorial membrane are removed, and a bony modiolus is carefully detached. Organ of Corti tissue, attached to the modiolus, is permeabilized with 0.3% Triton-X and incubated with rhodamine phalloidin diluted 1:100 in phosphate buffered saline (30 min). After washing the tissues, individual turns from the organ of Corti are dissected, mounted on microscope slides, and examined and photographed using a Leica DMRB epiflourescence microscope. Hair cell counts are conducted, and cytocochleograms are prepared as known in the art.
Guinea pigs are treated with other compositions in order to compare the efficacy of the composition of the present disclosure with the other compositions. […] The guinea pigs are subjected to the same ABR testing, and the components of the ear are dissected, as described above in the Example to provide information on threshold shift and hair cell loss.
Eight groups of guinea pigs (where the number of guinea pigs ranges from 5 guinea pigs to 10 guinea pigs per group) are respectively treated with other compositions to compare the efficacy of the “ACEMg” composition of the present disclosure with the other compositions. […] The eight groups of guinea pigs are exposed to the same ABR testing, and the components of the ear are dissected as previously described in the Example to provide information on threshold shift and outer hair cell loss.

guinea pigs [5] = assay: Gentamicin-induced hair cell loss in guinea pigs (quantitative sensory hair cell assessment); type: in vivo, guinea pig
Method: In addition, outer hair cell loss and inner hair cell loss is measured both in the whole cochlea and in a trauma region of the cochlea. After treatment according to the method of the present disclosure, outer hair cell loss in the whole cochlea is less than 10%, and inner hair cell loss in the whole cochlea is less than 5%. Outer cell hair loss in the trauma region is less than 20%, while inner hair cell loss in the trauma region is less than 10%. […] To obtain those results, the composition is orally administered to guinea pigs for 10 to 16 days prior to first administration of the antibiotic, and the composition and antibiotic are administered again each day for forty days. The guinea pigs are then euthanized and the hair cells counted. Conversely, when the antibiotic is administered for forty days without administering the composition described herein in conjunction with the antibiotic, outer hair cell loss approaches 80%, while inner hair cell loss is about 8%.
The method of treating side effects of antibiotic treatment with the composition of the present disclosure is again performed on guinea pigs (normal hearing, male, pigmented). Six guinea pigs are subject to antibiotic administration and treatment with the composition of the present disclosure. The guinea pigs were fed with a chow containing the composition including beta-carotene, vitamin C, vitamin E, and magnesium in the amounts shown in Table 3 for 10 days prior to administration of a first dosage of gentamicin antibiotic, and were fed the same chow every day for 41 days. […] Fourteen days following cessation of antibiotic treatment, the guinea pigs were euthanized, left cochleae harvested, and quantitative sensory hair cell assessments were performed. […]
Six guinea pigs are subject to antibiotic administration in the absence of treatment with the composition of the present disclosure. […] Fourteen days following cessation of antibiotic treatment, the guinea pigs were euthanized, left cochleae harvested, and quantitative sensory hair cell assessments were performed.

[6] = antibiotic administered without the composition

Row | Molecule | permanent hearing loss 10 days post noise (FIG. 1), protection in words (guinea pigs [1]) | sensory cell death by hair cell counts, whole cochlea and trauma region, compared to the saline control (guinea pigs [4]) | threshold shift, as averaged across all frequencies (guinea pigs [1]) | other results
1 | Cc1c(C)c2c(c(C)c1O)CCC(C)(C(=O)O)O2 (stereo not drawn) | less permanent hearing loss than control animals |  |  | 
2 | Oc1ncnc2[nH]ncc12 [allopurinol] |  |  |  | reducing gentamicin-induced ototoxicity [2]: ineffective; reducing noise-induced hearing loss [3]: effective
3 | CNCCc1ccccn1 [betahistine] | approximately the same amount of protection as those treated with vitamin E; also recorded: does not exhibit an additive effect |  |  | 
4 | CN(CC(=O)O)C(=N)N [creatine] |  | reduced sensory cell death | about 34 decibels | 
5 | O=S(=O)([O-])[O-].[Mg+2] [magnesium, magnesium sulfate] |  | reduced sensory cell death | about 41 decibels | sensory cell death by hair cell counts, whole cochlea and trauma region, compared to the saline control (guinea pigs [4]; listed as Mg): significantly reduced sensory cell death
6 | gentamicin |  |  |  | inner hair cell loss (guinea pigs [5]; [6]): about 8%; outer hair cell loss (guinea pigs [5]; [6]): ~80%; ototoxic effect on hair cells (guinea pigs [5]; gentamicin 140 mg/kg s.c. once a day for 16 days, no composition, in words): dramatic cell death of outer hair cells
